How the values were obtained:
[1] = tested on: VSV-G; format: cell-based, vesicular stomatitis Indiana virus (VSV)
[2] = tested on: VSV-G glycoprotein; format: cell-based, vesicular stomatitis Indiana virus (VSV)

CN(N=Cc1ccc(O)c(O)c1)c1nc(-c2ccccc2)cc(-c2ccccc2)n1 [MK-28, 4-((2-(4,6-diphenylpyrimidin-2-yl)-2-methylhydrazineylidene)methyl) benzene-1,2-diol] was tested, and the “Endo H-resistance of VSV-G” value [1] was “decreased considerably” and the “Endo H-resistance of VSV-G relative to untreated control cells” value [2] was “about half the resistance of untreated control cells”.
